The data set is described as follows: Solubility of Compound 1 in solvents. In kind it is physicochemical.

Structures are written as SMILES.

Turning to `CC(C)(CO)c1cc2cc(NC(=O)C3(c4ccc5c(c4)OC(F)(F)O5)CC3)c(F)cc2n1C[C@@H](O)CO` [Compound 1, (R)-1-(2,2-difluorobenzo[d][1,3]dioxol-5-yl)-N-(1-(2,3-dihydroxypropyl)-6-fluoro-2-(1-hydroxy-2-methylpropan-2-yl)-1H-indol-5-yl)cyclopropanecarboxamide], the solubility (acetonitrile, methanol, ethanol, isopropyl alcohol, acetone, organic solvent or mixture) was above 20 mg/mL; the solubility (organic solvent or mixture, first solvent, e.g. ethyl acetate, ethanol, isopropyl alcohol, or acetone) was above 20 mg/mL; the solubility (second solvent, for example heptane or water) was below 1 mg/mL.

Broadly, the solubility is the dissolved amount per volume that the medium holds.

For the origin of these results see patent US20110251253A1, “SOLID FORMS OF (R)-1-(2,2-DIFLUOROBENZO[D][1,3]DIOXOL-5-YL)-N-(1-(2,3-DIHYDROXYPROPYL)-6-FLUORO-2-(1-HYDROXY-2-METHYLPROPAN-2-YL)-1H-INDOL-5-YL) CYCLOPROPANECARBOXAMIDE” (VERTEX PHARMACEUTICALS INCORPORATED, priority 2010, published 2011).
